Tests used:
RAW 264.7 cells = assay: Nitric oxide (NO) release from LPS-activated RAW 264.7 cells, Griess Reagent System; assay type: cell-based, murine; settings: for inhibition of NO production when compared with the LPS-stimulated baseline cells: 1.3 μM valerenic acid
Experimental: The objective of the studies reported in working examples 1-5 hereinbelow was to evaluate the anti-inflammatory properties of Melatonin, carnosic acid (Rosemary extract), Valerenic acid and combinations thereof on a cell line derived from murine macrophages (RAW 264.7 cells) activated by lipopolysaccharide (LPS).
10^5 RAW 264.7 cells were seeded in 96-well plates in a medium containing 1% FBS, 1% Glutamine and 1% Pen/strep in DMEM.
For dose response assays, cells were treated with 2-fold concentrations of Melatonin (starting from 15.6 μM up to 1000 μM LOT # XPS150311, Yes Pharma), Rosemary extract (0.1, 0.2, 0.4, 1, 2, 4, or 10 μM, Product #302659, Batch # LAB.16-659001, Vitiva) or 10% Valerenic acid (starting from 1.56 mg/ml up to 100 mg/ml, Batch # IWTC/5949/15001, Indo World Trading Corporation) for 6 hours. Then, the test solutions were removed and the cells were induced with lipopolysaccharide (LPS) (5 ng/ml). In addition, positive control cells were treated with 10 μM dexamethasone. Nitric oxide (NO) release was measured after incubation at 37° C., 5% CO2 using a Griess Reagent System. The method is based on the chemical diazotization reaction that was originally described by Griess in 1879, which uses sulfanilamide and N-1-napthylethylenediamine dihydrochloride (NED) under acidic (phosphoric acid) conditions. This system detects NO2^− in a variety of biological and experimental liquid matrices such as tissue culture medium that was tested in this study.
For combination assays, cells were treated with various concentrations of Melatonin, Rosemary extract (containing 25% carnosic acid) and 10% Valerenic acid, at the final concentration indicated in each experiment, hereinbelow, for 22 hours together with LPS induction (5 ng/ml). […] In addition, positive control cells were treated with 10 μM dexamethasone. Nitric oxide (NO) release was tested after incubation at 37° C., 5% CO2 using the Griess Reagent System.

rats = assay: Open field center time, base-line and caffeine-relaxed rats; assay type: in vivo, rat; settings: FIG. 4; caffeine-relaxed rats
Experimental: As in Example 3, above, open field tests were used to measure the anxiolytic effects of melatonin, valerian and a combination of these two substances. However, in some of the rats in the present study, the effect of the test substances was measured in rats which had also received caffeine. Thus, while the study reported in Example 3 provided insights into the effect of melatonin and valerian on base-line anxiety, the results obtained in this study relate to the effect of these substances on both base-line and caffeine-induced (“caffeine-relaxed”) subjects. The same open-field method was used as in Example 3. However, in this study, the parameter that was measured was the “center time” that is, the time that the rats spend in the center of tested arena. The center time was used as an index for the anxiolytic effect of the test substances in both “base-line” and “caffeine-relaxed” rats.

laboratory rats = assay: Open field spontaneous activity (mobility time), anxiolytic effect; assay type: in vivo, rat; settings: FIG. 3, 15 minute session, 30 minutes after administration
Experimental: Open field tests were used as a measure of the spontaneous activity of laboratory rats, in order to measure the anxiolytic effects of melatonin, valerian and a combination of these two substances. Rats were placed in a behavioral room one hour before testing procedures, for purpose of habituation. Activity was tested in open boxes (open-fields: 80 cm wide, 80 cm large, 60 cm high) made of transparent Plexiglas. Animals were individually placed in the open-fields for 15 minute sessions. The following parameters were recorded: Indices of motor exploratory activity: the distance traveled, mobility time, Open Field spontaneous activity is performed on the testing day, 30 minutes after the administration of a test substance (melatonin, valerian, a combination of the two, or vehicle). • Indices of habituation: distance traveled. • During the last 5 minute period in percent of the first as last 5 minute periods. • Indices of anxiety: • Percentage of distance traveled in the central zone of the open-field. • Percentage of time spent in the central zone of the open-field.

[1] = Example 1, FIG. 1, tested separately: 0.5 μM Melatonin, 0.7 μM carnosic acid, 22 hours together with 5 ng/ml LPS
[2] = Example 2, tested separately: 0.05 μM Melatonin, 0.07 μM carnosic acid, 5 ng/ml LPS

Row | SMILES | NO production by the cultured cells (RAW 264.7 cells; Example 1, FIG. 1 column 2, positive control 10 μM dexamethasone, 5 ng/ml LPS, LPS-stimulated untreated cells 40 μM) | inhibition of NO production when compared with the LPS-stimulated baseline cells (RAW 264.7 cells; [1]) | inhibition of NO production when compared with the LPS-stimulated baseline cells (RAW 264.7 cells; [2]) | caffeine induced center motility (rats) | mobility time in comparison to the vehicle control (laboratory rats)
1 | C[C@@H]1C[C@H]2[C@@H]3CCC4=CC(=O)C=C[C@]4(C)[C@@]3(F)[C@@H](O)C[C@]2(C)[C@@]1(O)C(=O)CO [dexamethasone] | 30 µM |  |  |  | 
2 | CC(C)c1cc2c(c(O)c1O)[C@@]1(C(=O)O)CCCC(C)(C)[C@@H]1CC2 [carnosic acid] |  | none of the following individual components produced any significant inhibition | none of the following individual components produced any significant inhibition |  | 
3 | CC1=C2[C@H](/C=C(\C)C(=O)O)CC[C@@H](C)[C@H]2CC1 [valerenic acid] |  | none of the following individual components produced any significant inhibition | none of the following individual components produced any significant inhibition |  | 
4 | COc1ccc2[nH]cc(CCNC(C)=O)c2c1 [Melatonin, N-acetyl-5-methoxytryptamine] |  | none of the following individual components produced any significant inhibition | none of the following individual components produced any significant inhibition | only valerian (both when used separately and when combined with melatonin) affected caffeine induced center motility | increased the mobility time

From patent publication US10675269B2, “Compositions comprising melatonin” (TRINUTRA LTD., priority 2016, dated 2020)
